From patent publication EP1157000B1 (Warner-Lambert Company LLC, priority 1999, dated 2001)
Where a name gives a salt, the structure may show the parent alone. Read-outs that look alike come from different tables or passages of the source.

Target: T1, rBCATc (Rattus norvegicus, UniProt P54690)
T1 construct: The supernatant was dialyzed with at least three changes of dialysis buffer; from tissue; host or cells: rat brain (high-speed supernatant of homogenate, dialyzed)
T1 sequence (P54690 1-411): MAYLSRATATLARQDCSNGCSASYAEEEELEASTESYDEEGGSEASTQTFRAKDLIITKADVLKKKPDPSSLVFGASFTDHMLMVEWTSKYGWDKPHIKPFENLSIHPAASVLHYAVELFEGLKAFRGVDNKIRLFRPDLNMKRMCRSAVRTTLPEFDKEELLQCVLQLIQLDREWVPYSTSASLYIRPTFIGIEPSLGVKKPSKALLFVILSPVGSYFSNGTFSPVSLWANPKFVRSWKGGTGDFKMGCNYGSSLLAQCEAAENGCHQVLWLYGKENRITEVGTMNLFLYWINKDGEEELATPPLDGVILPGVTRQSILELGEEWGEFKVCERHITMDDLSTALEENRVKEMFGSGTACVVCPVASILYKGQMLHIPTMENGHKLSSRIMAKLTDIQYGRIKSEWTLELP
Assay: Assay of BCAT ([14C] L-leucine transamination, rat brain supernatant enzyme)
Assay type: biochemical
Conditions: 10 mM 2-oxoglutarate, pH 8.3, 10 min, 22 °C
Description: Enzyme preparation: Frozen rat brains were thawed on ice and minced into fine pieces. […] The samples were homogenized in Potters homogenizer (B. Bran Biotech International) at 500 rpm for ten strokes, followed by additional ten strokes at 800 rpm. The homogenates were centrifuged in Beckman J2-M1 centrifuge with rotor JA-20 at 19, 000 rpm for 1 hr. […] The resulting enzyme was stored at -80 °C for further assays.
The solutions for the reaction mixture were made in 10-fold concentrations. After 10 min incubation at room temperature (22 °C), the reaction was stopped by adding 100 µl of 15 mM p-nitrophenyl hydrazine in 2 M HCL. After a few minutes, 1 mL of a toluene-based scintillation liquid (4.5 g of PPO and 0.5 g ofbis-MSB in 1 liter of toluene) was added, the tube was capped and mixed thoroughly with a Vortex mixer. […] Six hundreds µl of organic layer from each tube was placed into scintillation vials, followed by adding 10 ml of scintillation cocktail for counting.

[1] = 25 µM [14C] L-leucine, read-out: rBCATc IC50

Row | SMILES | IC50 [1] [µM] | IC50 (rBCATc IC50, 25 µM [14C] L-leucine) [µM]
1 | C[C@@H]1C[C@H](C)CC(CNCC2CCCCC2)(CC(=O)O)C1 (stereo partly drawn) [Example 46, {(3R, 5S)-1-[(Cyclohexylmethyl-amino)-methyl]-3,5-dimethylcyclohexyl}-acetic acid; hydrochloride salt] | 1130 | 
2 | O=C(O)CC1(CNCC2CCCC2)CCCCC1 [Example 37, {1-[Cyclopentylmethyl-amino)-methyl]-cyclohexyl}-acetic acid; hydrochloric salt] | 1190 | 
3 | CCCCNCC1(CC(=O)O)CCCCC1 [Example 52, (1-Butylaminomethyl-cyclohexyl)-acetic acid; hydrochloride salt] | 2520 | 
4 | CCC(C)CNCC1(CC(=O)O)C[C@H](C)C[C@H](C)C1 (stereo partly drawn) [Example 42, {(3R, 5S)-3,5-Dimethyl-1-[(2-methyl-butylamino)-methyl]-cyclohexyl}-acetic acid; hydrochloride salt] | 669 | 
5 | CCC1CCC(CN)(CC(=O)O)CC1 (stereo not shown) [Example 60, (1-Aminomethyl-4-ethyl-cyclohexyl)-acetic acid; hydrochloric salt] | 11500 | 
6 | C[C@@H]1C[C@H](C)C[C@](CO)(CC(=O)O)C1 [Example 49, trans-((3R, 5S)-1-Hydroxymethyl-3,5-dimethyl-cyclohexyl-acetic acid; hydrochloride salt] | 84 | 
7 | CCCCNC[C@@]1(CC(=O)O)C[C@H](C)C[C@H](C)C1 [Example 13, 1α,3β,5β-(1-Butylaminomethyl-3,5-dimethyl-cyclohexyl)-acetic acid; hydrochloride salt] | > 10000 | 
8 | O=C(O)CC1(CNC2CCC2)CCCCC1 [Example 20, hydrochloride salt] | 469 | 
9 | O=C(O)CC1(CO)CCCCC1 [Example 25, Sodium salt of 1-(hydroxymethyl)cyclohexane-acetic acid] | 170 | 
10 | C[C@@H]1CC(CN)(CC(=O)O)C[C@H]1C [Example 6, (+)-(trans)-(1-Aminomethyl-3,4-dimethyl-cyclopentyl)-acetic acid hydrochloride] | 2620 | 
11 | C[C@@H]1CCC[C@](CN)(CC(=O)O)C1 [Example 1, trans-(1R,3R)(1-Aminomethyl-3-methyl-cyclohexyl)-acetic acid hydrochloride] | 146 | 
12 | O=C(O)CC1(CNCc2ccccc2)CCCCC1 [Example 35, [1-(Benzylamino-methyl)-cyclohexyl]-acetic acid hydrochloride salt] | 1770 | 
13 | O=C(O)CC1(CNCC2CCCCC2)CCCCC1 [Example 38, {1-[(Cyclohexylmethyl-amino)-methyl]-cyclohexyl}-acetic acid; hydrochloric salt] | 2620 | 
14 | C[C@@H]1CCC(CN)(CC(=O)O)C1 (mixture of isomers) [Example 5, (cis/trans)-(3R)-(1-Aminomethyl-3-methyl-cyclopentyl)-acetic acid hydrochloride] | 2930 | 
15 | CC1(C)CCCC(CN)(CC(=O)O)C1 (stereo not shown) [Example 3, (1-Aminomethyl-3,3-dimethyl-cyclohexyl)-acetic acid hydrochloride] |  | 1660
16 | CC(C)CNC[C@@]1(CC(=O)O)C[C@H](C)C[C@H](C)C1 [Example 17, 1α,3β,5β-(1-(Isobutylamino-methyl)-3,5-dimethyl-cyclohexyl]-acetic acid hydrochloride salt] | > 10000 | 
